Results: patent US20100016232A1, “Treatment Of Inflammatory Diseases With Mammal Beta Defensins” (Novozymes A/S, priority 2008, published 2010)
Where no end group is shown, it is not given here.

Assays:
Type in all cases: cell-based
[1] = tested on: TNF production from human peripheral blood mononuclear cells (PBMC); assay: TNF production from human PBMC, Cytometric Bead Array
Protocol: (§1) Peripheral blood was drawn from healthy volunteers (with approval from the relevant ethical committee in Denmark). Heparinized blood was diluted 1/1 v/v with RPMI and were subjected to Ficoll density centrifugation within 2 h of drawing. Plasma was collected from the top from individual donors and was kept on ice until it was used at 2% in the culture medium (autologous culture medium). Isolated PBMC were resuspended in autologous culture medium and seeded in 96-well culture plates with 255.000 cells per well in a total of 200 μl. […] The concentrations used for stimulation were optimized on 3 different donors in initial experiments, for LPS two different concentrations were used to be sure to be on a cytokine level that is possible to modulate. In some experiments PBMC were treated with Dexamethason and Indomethacin alone and together with LPS or LTA as a control on downregulation of inflammatory cytokines. The supernatants were collected after incubation at 37° C. for 24 hours, and stored at −80° C. until cytokine measurement. Viability was measured by Alamar Blue (Biosource, DALL 1100) in all experiments and in some cases also by MTS (Promega) according to manufacturer's instruction and was in some experiments also judged by counting of the cells by a Nucleocounter.
(§2) Cytokine production in supernatants was measured by flow cytometry with a human inflammation cytometric bead array (CBA) according to manufacturer's instructions (BD) on a FACSarray flow cytometer. The following cytokines were measured: IL-8, IL-1β, IL-10, TNF, IL-12 p70, IL-6. In some experiments, cytokines were measured by ELISA kits from R&D systems (IL-10, TNF-α, IL-1β) according to the manufacturer' instruction.

[2] = tested on: IL-1β production from human peripheral blood mononuclear cells (PBMC); assay: IL-1β production from human PBMC, Cytometric Bead Array
Protocol: as §1, §2

[3] = tested on: IL-10 production from human peripheral blood mononuclear cells (PBMC); assay: IL-10 production from human PBMC, Cytometric Bead Array
Protocol: as §1, §2

[4] = LPS 0.6 ng/ml, test compound 1 μg/ml, Table 16
[5] = LPS 0.6 ng/ml, test compound 10 μg/ml, Table 16
[6] = LPS 0.6 ng/ml, test compound 40 μg/ml, Table 16
[7] = LPS 20 ng/ml, test compound 1 μg/ml, Table 16
[8] = LPS 20 ng/ml, test compound 10 μg/ml, Table 16
[9] = LPS 20 ng/ml, test compound 40 μg/ml, Table 16
[10] = LPS 0.6 ng/ml, test compound 1 μg/ml, Table 18
[11] = LPS 0.6 ng/ml, test compound 10 μg/ml, Table 18
[12] = LPS 0.6 ng/ml, test compound 40 μg/ml, Table 18
[13] = LPS 20 ng/ml, test compound 1 μg/ml, Table 18
[14] = LPS 20 ng/ml, test compound 10 μg/ml, Table 18
[15] = LPS 20 ng/ml, test compound 40 μg/ml, Table 18
[16] = LPS 0.6 ng/ml, test compound 1 μg/ml, Table 17
[17] = LPS 0.6 ng/ml, test compound 10 μg/ml, Table 17
[18] = LPS 0.6 ng/ml, test compound 40 μg/ml, Table 17
[19] = LPS 20 ng/ml, test compound 1 μg/ml, Table 17
[20] = LPS 20 ng/ml, test compound 10 μg/ml, Table 17
[21] = LPS 20 ng/ml, test compound 40 μg/ml, Table 17

Compound: COc1ccc2c(c1)c(CC(=O)O)c(C)n2C(=O)c1ccc(Cl)cc1 [Indomethacin, reference compound]
- IL-1β ([2]; LPS 0.6 ng/ml, Indomethacin 0.72 ug/ml, Table 13): 3100 pg/mL
- IL-1β ([2]; LPS 0.6 ng/ml, Indomethacin 7.2 ug/ml, Table 13): 4100 pg/mL
- IL-1β ([2]; LPS 20 ng/ml, Indomethacin 0.72 ug/ml, Table 13): 6460 pg/mL
- IL-1β ([2]; LPS 20 ng/ml, Indomethacin 7.2 ug/ml, Table 13): 6120 pg/mL
- IL-1β ([2]; LTA 1.25 μg/ml, Indomethacin 0.72 ug/ml, Table 13): 7530 pg/mL
- IL-1β ([2]; LTA 1.25 μg/ml, Indomethacin 7.2 ug/ml, Table 13): 8910 pg/mL
- IL-1β ([2]; Medium, Indomethacin 0.72 ug/ml, Table 13): 10 pg/mL
- IL-1β ([2]; Medium, Indomethacin 7.2 ug/ml, Table 13): 40 pg/mL
- IL-10 ([3]; LPS 0.6 ng/ml, Indomethacin 0.72 ug/ml, Table 12): 37.3 pg/mL
- IL-10 ([3]; LPS 0.6 ng/ml, Indomethacin 7.2 ug/ml, Table 12): 45.7 pg/mL
- IL-10 ([3]; LPS 20 ng/ml, Indomethacin 0.72 ug/ml, Table 12): 108.0 pg/mL
- IL-10 ([3]; LPS 20 ng/ml, Indomethacin 7.2 ug/ml, Table 12): 77.9 pg/mL
- IL-10 ([3]; LTA 1.25 μg/ml, Indomethacin 0.72 ug/ml, Table 12): 84.9 pg/mL
- IL-10 ([3]; LTA 1.25 μg/ml, Indomethacin 7.2 ug/ml, Table 12): 90.4 pg/mL
- IL-10 ([3]; Medium, Indomethacin 0.72 ug/ml, Table 12): 0.0 pg/mL
- IL-10 ([3]; Medium, Indomethacin 7.2 ug/ml, Table 12): 0.0 pg/mL

Compound: rhBD2: recombinant hBD2, which is identical to hBD2 as used in Example 1 (GIGDPVTCLKSGAICHPVFCPRRYKQIGTCGLPGTKCCKKP; not fully specified; ends and bridges not checked; UniProt O15263 24-64, looked up)
- TNF [1, 4]: 196 pg/mL
- TNF % of control [1, 4]: 27%
- TNF [1, 5]: 125 pg/mL
- TNF % of control [1, 5]: 17%
- TNF [1, 6]: 74 pg/mL
- TNF % of control [1, 6]: 10%
- TNF [1, 7]: 918 pg/mL
- TNF % of control [1, 7]: 42%
- TNF [1, 8]: 260 pg/mL
- TNF % of control [1, 8]: 12%
- TNF [1, 9]: 167 pg/mL
- TNF % of control [1, 9]: 8%
- TNF ([1]; Medium, test compound 1 μg/ml, Table 16): 1 pg/mL
- TNF ([1]; Medium, test compound 10 μg/ml, Table 16): 0 pg/mL
- TNF ([1]; Medium, test compound 40 μg/ml, Table 16): 0 pg/mL
- IL-1β [2, 10]: 284 pg/mL
- IL-1β % of control [2, 10]: 38%
- IL-1β [2, 11]: 214 pg/mL
- IL-1β % of control [2, 11]: 29%
- IL-1β [2, 12]: 124 pg/mL
- IL-1β % of control [2, 12]: 17%
- IL-1β [2, 13]: 1480 pg/mL
- IL-1β % of control [2, 13]: 58%
- IL-1β [2, 14]: 624 pg/mL
- IL-1β % of control [2, 14]: 25%
- IL-1β [2, 15]: 395 pg/mL
- IL-1β % of control [2, 15]: 16%
- IL-1β ([2]; Medium, test compound 1 μg/ml, Table 18): 0 pg/mL
- IL-1β ([2]; Medium, test compound 10 μg/ml, Table 18): 0 pg/mL
- IL-1β ([2]; Medium, test compound 40 μg/ml, Table 18): 0 pg/mL
- IL-10 [3, 16]: 72 pg/mL
- IL-10 % of control [3, 16]: 108%
- IL-10 [3, 17]: 103 pg/mL
- IL-10 % of control [3, 17]: 155%
- IL-10 [3, 18]: 108 pg/mL
- IL-10 % of control [3, 18]: 162%
- IL-10 [3, 19]: 126 pg/mL
- IL-10 % of control [3, 19]: 113%
- IL-10 [3, 20]: 243 pg/mL
- IL-10 % of control [3, 20]: 218%
- IL-10 [3, 21]: 281 pg/mL
- IL-10 % of control [3, 21]: 252%
- IL-10 ([3]; Medium, test compound 1 μg/ml, Table 17): 0 pg/mL
- IL-10 ([3]; Medium, test compound 10 μg/ml, Table 17): 0 pg/mL
- IL-10 ([3]; Medium, test compound 40 μg/ml, Table 17): 0 pg/mL
